Where two headings read alike, the source gives them in different places.
Molecular target: mu-opioid receptor (MOR) (Homo sapiens (Human), UniProt P35372)
Experiment: cell-based
Conditions: combined with a MOR antagonist; for AUC: AUC of [Ca2+]i fluorescence, CHO-K1/MOR/Gα15 cells

mu-opioid receptor (MOR), sequence (P35372 whole entry): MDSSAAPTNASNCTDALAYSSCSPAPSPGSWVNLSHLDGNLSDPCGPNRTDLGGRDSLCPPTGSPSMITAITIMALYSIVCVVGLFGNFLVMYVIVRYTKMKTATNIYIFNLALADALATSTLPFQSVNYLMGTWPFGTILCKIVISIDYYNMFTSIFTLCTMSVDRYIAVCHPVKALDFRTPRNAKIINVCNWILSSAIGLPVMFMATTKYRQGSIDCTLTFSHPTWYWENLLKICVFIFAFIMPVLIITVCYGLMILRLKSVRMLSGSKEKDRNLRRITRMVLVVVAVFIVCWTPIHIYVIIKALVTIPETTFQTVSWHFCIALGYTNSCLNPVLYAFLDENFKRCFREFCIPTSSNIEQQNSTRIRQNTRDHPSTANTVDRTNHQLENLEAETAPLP

CC(=O)COC(=O)c1ccc(N2C(=O)CSC2c2ccc(F)cc2)c(C)c1 (centres unmarked) [Example 268]
FLIPR Ca^2+ AUC: 12787 | EC50 (read-out: FLIPR Ca^2+ EC50): 3.8 µM

Cc1cc(C(=O)OCc2oc(=O)oc2C)ccc1N1C(=O)CSC1c1ccc(F)cc1 (centres unmarked) [Example 311]
EC50 (EC50, CHO-K1/MOR/Gα15 cells): < 10 µM

Cc1cc(C(=O)NCCN(C)C)ccc1N1C(=O)CSC1c1ccc(F)cc1 (centres unmarked) [Example 340]
FLIPR Ca^2+ AUC: 9445 | EC50 (read-out: FLIPR Ca^2+ EC50): 10 µM

O=C(O)c1ccc(N2C(=O)CSC2c2ccc(F)cc2)c(Cl)c1 (centres unmarked) [Example 44]
EC50 (EC50, CHO-K1/MOR/Gα15 cells): < 10 µM

Cc1noc(N2C(=O)CSC2c2ccc(F)cc2)c1C (centres unmarked) [Example 395]
AUC: more than 5000 | FLIPR Ca^2+ AUC: 7107 | EC50 (read-out: FLIPR Ca^2+ EC50): 12 µM

Cc1cc(C(=O)NS(=O)(=O)CC(C)C)ccc1N1C(=O)CSC1c1ccc(F)cc1 (centres unmarked) [Example 167]
AUC: more than 5000 | EC50 (EC50, CHO-K1/MOR/Gα15 cells): < 10 µM | FLIPR Ca^2+ AUC: 9905 | EC50 (read-out: FLIPR Ca^2+ EC50): 3.4 µM

COc1ccc(S(=O)(=O)NC(=O)c2ccc(N3C(=O)CSC3c3ccc(F)cc3)c(C)c2)cc1 (centres unmarked) [Example 188]
FLIPR Ca^2+ AUC: 21983 | EC50 (read-out: FLIPR Ca^2+ EC50): 0.7 µM

Cc1cc(C(=O)NCCc2ccc(Cl)cc2)ccc1N1C(=O)CSC1c1ccc(F)cc1 (centres unmarked) [Example 388]
FLIPR Ca^2+ AUC: 2951 | EC50 (read-out: FLIPR Ca^2+ EC50): 2 µM

Cc1ccc(F)cc1N1C(=O)CSC1c1ccc(Cl)c(F)c1 (centres unmarked) [Example 123]
FLIPR Ca^2+ AUC: 4228 | EC50 (read-out: FLIPR Ca^2+ EC50): 0.5 µM

Cc1cc(C(=O)OCCC2CC2)ccc1N1C(=O)CSC1c1ccc(F)cc1 (centres unmarked) [Example 238]
AUC: more than 5000 | FLIPR Ca^2+ AUC: 15409 | EC50 (read-out: FLIPR Ca^2+ EC50): 12.3 µM

Cc1cc(C(=O)NCCCN2CCOCC2)ccc1N1C(=O)CSC1c1ccc(F)cc1 (centres unmarked) [Example 347]
FLIPR Ca^2+ AUC: 12967 | EC50 (read-out: FLIPR Ca^2+ EC50): 8.2 µM

Cc1cc(C(=O)NS(=O)(=O)C2CCCCC2)ccc1N1C(=O)CSC1c1ccc(F)cc1 (centres unmarked) [Example 171]
AUC: more than 5000 | EC50 (EC50, CHO-K1/MOR/Gα15 cells): < 10 µM | FLIPR Ca^2+ AUC: 10272 | EC50 (read-out: FLIPR Ca^2+ EC50): 3.7 µM

CCOc1ccc(N2C(=O)CSC2c2ccc(F)cc2)cc1Cl (centres unmarked) [Example 20]
EC50 (EC50, CHO-K1/MOR/Gα15 cells): < 10 µM

CCCOC(=O)c1ccc(N2C(=O)CSC2c2ccc(F)cc2)c(C)c1 (centres unmarked) [Example 229]
FLIPR Ca^2+ AUC: 13237 | EC50 (read-out: FLIPR Ca^2+ EC50): 9.7 µM

Cc1cc(C(=O)O)ccc1N1C(=O)CSC1c1ccc(F)c(F)c1 (centres unmarked) [Example 62]
AUC: more than 5000 | EC50 (EC50, CHO-K1/MOR/Gα15 cells): < 10 µM | FLIPR Ca^2+ AUC: 21586 | EC50 (read-out: FLIPR Ca^2+ EC50): 1.6 µM

Cc1cc(C#N)ccc1N1C(=O)CSC1c1ccc(F)cc1 (centres unmarked) [Example 46]
EC50 (EC50, CHO-K1/MOR/Gα15 cells): < 10 µM

Cc1c(N2C(=O)CSC2c2ccccc2)c(=O)n(-c2ccccc2)n1C (centres unmarked) [Example 408]
AUC: more than 5000 | FLIPR Ca^2+ AUC: 9281 | EC50 (read-out: FLIPR Ca^2+ EC50): 12.7 µM

Cc1c(N2C(=O)CSC2c2cccc(F)c2)c(=O)n(-c2ccccc2)n1C (centres unmarked) [Example 404]
AUC: more than 5000 | FLIPR Ca^2+ AUC: 7127 | EC50 (read-out: FLIPR Ca^2+ EC50): 21.8 µM

Cc1ccc(Br)cc1N1C(=O)CSC1c1ccc(F)cc1 (centres unmarked) [Example 149]
EC50 (EC50, CHO-K1/MOR/Gα15 cells): < 10 µM | FLIPR Ca^2+ AUC: 4427 | EC50 (read-out: FLIPR Ca^2+ EC50): 4.4 µM

[2H]c1c([2H])c(C2SCC(=O)N2c2ccc(C(=O)O)cc2C)c([2H])c([2H])c1F (centres unmarked) [Example 579, 4-{2-[4-Fluoro-2,3,5,6-d4-phenyl]-4-oxo-1,3-thiazolidin-3-yl}-3-methylbenzoic acid]
FLIPR Ca^2+ AUC: 14761 | EC50 (read-out: FLIPR Ca^2+ EC50): 1.93 µM

Cc1cc(C(O)C(F)(F)F)ccc1N1C(=O)CSC1c1ccc(F)cc1 (centres unmarked) [Example 600, 2-(4-Fluorophenyl)-3-[2-methyl-4-(2,2,2-trifluoro-1-hydroxyethyl)phenyl]-1,3-thiazolidin-4-one]
AUC: more than 5000 | EC50 (EC50, CHO-K1/MOR/Gα15 cells): < 10 µM | FLIPR Ca^2+ AUC: 13110 | EC50 (read-out: FLIPR Ca^2+ EC50): 6.75 µM

Cc1cc(C(=O)NS(=O)(=O)c2cccc3c(N(C)C)cccc23)ccc1N1C(=O)CSC1c1ccc(F)cc1 (centres unmarked) [Example 210]
AUC: more than 5000 | EC50 (EC50, CHO-K1/MOR/Gα15 cells): < 10 µM | FLIPR Ca^2+ AUC: 9425 | EC50 (read-out: FLIPR Ca^2+ EC50): 0.7 µM

Cc1cc(C(=O)NCCc2ccccc2F)ccc1N1C(=O)CSC1c1ccc(F)cc1 (centres unmarked) [Example 383]
FLIPR Ca^2+ AUC: 5504 | EC50 (read-out: FLIPR Ca^2+ EC50): 6.9 µM

Cc1ccc(F)cc1N1C(=O)CSC1c1cccc(F)c1 (centres unmarked) [Example 113]
EC50 (EC50, CHO-K1/MOR/Gα15 cells): < 10 µM

Cc1cc(C(=O)NN)ccc1N1C(=O)CSC1c1ccc(F)cc1 (centres unmarked) [Example 220]
FLIPR Ca^2+ AUC: 13871 | EC50 (read-out: FLIPR Ca^2+ EC50): 4.9 µM

Cc1cc(F)ccc1N1C(=O)CSC1c1ccc(F)cc1 (centres unmarked) [Example 110]
FLIPR Ca^2+ AUC: 6308 | EC50 (read-out: FLIPR Ca^2+ EC50): 3.8 µM

CCc1ccc(C2SCC(=O)N2c2cc(F)ccc2C)cc1 (centres unmarked) [Example 117]
AUC: more than 5000 | FLIPR Ca^2+ AUC: 7880 | EC50 (read-out: FLIPR Ca^2+ EC50): 13.5 µM

Cc1c(N2C(=O)CSC2c2ccccc2F)c(=O)n(-c2ccccc2)n1C (centres unmarked) [Example 406]
AUC: more than 5000 | FLIPR Ca^2+ AUC: 9974 | EC50 (read-out: FLIPR Ca^2+ EC50): 31.2 µM

Cc1cc(C(=O)OCOC(=O)C(C)(C)C)ccc1N1C(=O)CSC1c1ccc(F)cc1 (centres unmarked) [Example 273]
EC50 (EC50, CHO-K1/MOR/Gα15 cells): < 10 µM | FLIPR Ca^2+ AUC: 12265 | EC50 (read-out: FLIPR Ca^2+ EC50): 5.7 µM

Source: patent publication US10544113B2 (priority 2016, dated 2020)
